Patent publication US20040232089A1, “Biocidal compounds for treating water” (VANETTA S.p.A., priority 2003, published 2004)

Experiment: Photo-degradability under daylight and UV
Assay type: physicochemical
Conditions: 10 ppm in drinking water (pH 6,5-7,5)
Method: Similarly, the same behaviour is confirmed when evaluating the photo-degradability under daylight and UV (the irradiation test is carried out on a solution of 10 ppm in drinking water (pH 6,5-7,5)).

CC1(S(=O)(=O)O)CC(=O)c2ccccc2C1=O.NC(=O)c1cccnc1 (centres unmarked) [MNB, menadione nicotinamide bisulphite]
Light exp. Tot Degr.: 48 h
Light exp. ½ life: 10 h
